Laboratory results taken from article PMC5764337 (PLoS ONE, 2018).

Key:
Type in all cases: biochemical
[1] = biological target: A/PR8-I222V virus NA (Influenza A virus (H3N2), UniProt V5P6L4, I222V)
[2] = biological target: A/PR8-S331G virus NA (Influenza A virus (H3N2), UniProt A0A193ACB1, S331G)
[3] = biological target: A/PR8-S331R virus NA (Influenza A virus (H3N2), UniProt A0A193ACB1, S331R)
[4] = biological target: B/YAM-D342S virus NA (Influenza B virus, UniProt Q90021, D342S)
[5] = biological target: B/YAM-A395T virus NA (Influenza B virus, UniProt C0LT34, A395T)
[6] = biological target: B/YAM-A395D virus NA (Influenza B virus, UniProt C0LT34, A395D)
[7] = biological target: B/YAM-A395V virus NA (Influenza B virus, UniProt A0A1W5M8K9, A395V)
[8] = read-out: NA enzyme inhibition assay (mean IC50 ± SD)

With CCC(CC)[C@H](NC(C)=O)[C@@H]1[C@H](O)[C@@H](C(=O)O)C[C@H]1N=C(N)N [Peramivir, peramivir] as the molecule, how does the “fold increase in IC50 over A/PR8-WT” value [1] read?
Its value is 0.1 ± 0.01 (1) fold.

And the IC50 [1, 8]?
Its IC50 is 0.1 nM.

What about the “fold increase in IC50 over A/PR8-WT” value [2] of the same molecule?
The value was 0.3 ± 0.3 (3) fold.

What about the IC50 [2, 8] of the same molecule?
The IC50 was 0.3 nM.

What about the “fold increase in IC50 over A/PR8-WT” value [3] of the same molecule?
The value was 0.2 ± 0.06 (2) fold.

And the IC50 [3, 8]?
Its IC50 is 0.2 nM.

What about the “fold increase in IC50 over B/BR/60/08” value [4] of the same molecule?
Its value is 0.4 ± 0.12 (0.8) fold.

And the IC50 [4, 8]?
Its IC50 is 0.4 nM.

And the “fold increase in IC50 over B/BR/60/08” value [5]?
Its value is 0.6 ± 0.08 (1.2) fold.

And the IC50 [5, 8]?
Its IC50 is 0.6 nM.

What about the “fold increase in IC50 over B/BR/60/08” value [6] of the same molecule?
Its value is 0.5 ± 0.36 (1) fold.

What about the IC50 [6, 8] of the same molecule?
The IC50 was 0.5 nM.

What about the “fold increase in IC50 over B/BR/60/08” value [7] of the same molecule?
The value was 0.8 ± 0.12 (1.6) fold.

And the IC50 [7, 8]?
Its IC50 is 0.8 nM.
